Assay results reported in patent US20110182850A1, “ORGANIC COMPOUNDS AND THEIR USES” (priority 2009, published 2011).

The compounds below were run against T1, HCV NS3-4A serine protease (full-length NS3-4A protein, genotype 1a, strain HCV-1) (Hepatitis C virus genotype 1a, UniProt P26664) (assay: HCV NS3-4A protease assay). Conditions: Protease IC50.
T1 construct: using the full-length NS3-4A protein (genotype 1a, strain HCV-1)
Assay type: biochemical
Description: The inhibitory activity of certain compounds of Table A against HCV NS3-4A serine protease is determined in a homogenous assay using the full-length NS3-4A protein (genotype 1a, strain HCV-1) and a commercially available internally-quenched fluorogenic peptide substrate as described by Taliani, M., et al. 1996 Anal. Biochem. 240:60-67, which is incorporated by reference in its entirety.

T1 sequence (P26664 1658-1711): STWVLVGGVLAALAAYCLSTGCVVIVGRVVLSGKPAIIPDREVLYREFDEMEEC
T1 sequence (P26664 1027-1657): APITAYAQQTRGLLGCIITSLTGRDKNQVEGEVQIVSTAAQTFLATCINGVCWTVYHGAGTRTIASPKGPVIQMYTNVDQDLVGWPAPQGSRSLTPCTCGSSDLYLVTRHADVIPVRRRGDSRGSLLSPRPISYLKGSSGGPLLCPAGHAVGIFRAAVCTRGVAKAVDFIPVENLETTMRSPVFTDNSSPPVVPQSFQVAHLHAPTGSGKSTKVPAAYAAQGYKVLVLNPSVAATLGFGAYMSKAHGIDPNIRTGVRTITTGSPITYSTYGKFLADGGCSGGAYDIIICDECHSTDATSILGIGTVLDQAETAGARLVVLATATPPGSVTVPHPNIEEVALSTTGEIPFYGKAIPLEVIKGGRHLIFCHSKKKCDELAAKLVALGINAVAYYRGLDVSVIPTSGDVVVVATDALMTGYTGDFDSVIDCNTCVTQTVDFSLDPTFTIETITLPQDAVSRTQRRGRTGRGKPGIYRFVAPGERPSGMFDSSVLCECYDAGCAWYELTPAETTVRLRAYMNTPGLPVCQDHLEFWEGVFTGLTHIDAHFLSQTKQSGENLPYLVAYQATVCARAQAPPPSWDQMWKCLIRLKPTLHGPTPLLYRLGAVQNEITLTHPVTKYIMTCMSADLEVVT

| Compound | IC50 [nM] |
| --- | --- |
| C=C[C@@H]1C[C@]1(NC(=O)[C@@H]1C[C@@]2(CN1C(=O)[C@@H](NC(=O)[C@@H](NC(=O)N(C)C)C(C)(C)C)C(C)(C)C)C(C)(C)C21CCC1)C(=O)NS(=O)(=O)C1CC1 [Compound 56, (5R,8S)-N-{(1R,2S)-1-[(cyclopropylsulfonyl)carba-moyl]-2-vinylcyclopropyl}-7-[(2S)-2-({(2S)-2-[(dimethylcarbamoyl)amino]-3,3-dimethylbutanoyl}amino)-3,3-dimethylbutanoyl]-10,10-dimethyl-7-azadispiro[3.0.4.1]decane-8-carboxamide] | 50 |
| C=C[C@@H]1C[C@]1(NC(=O)[C@@H]1C[C@@]2(CN1C(=O)[C@@H](NC(=O)[C@@H](NC(=O)c1ccccn1)C1CCCCC1)C(C)(C)C)C(C)(C)C21CCC1)C(=O)NS(=O)(=O)C1CC1 [Compound 97, (5R,8S)-7-[(2S)-2-({(2S)-2-cyclohexyl-2-[(pyridin-2-ylcarbonyl)amino]acetyl}amino)-3,3-dimethylbutanoyl]-N-{(1R,2S)-1-[(cyclopropylsulfonyl)carba-moyl]-2-vinylcyclopropyl}-10,10-dimethyl-7-azadispiro[3.0.4.1]decane-8-carboxamide] | 1 |
| C=C[C@@H]1C[C@]1(NC(=O)[C@@H]1C[C@@]2(CN1C(=O)[C@@H](NC(=O)[C@@H](NC(=O)[C@@H]1CCCCN1C(C)C)C1CCCCC1)C(C)(C)C)C(C)(C)C21CCC1)C(=O)NS(=O)(=O)C1(CC)CC1 [Compound 66, (5R,8S)-7-[(2S)-2-{[(2S)-2-cyclohexyl-2-({[(2S)-1-isopropylpiperidin-2-yl]carbonyl}amino)acetyl]amino}-3,3-dimethylbutanoyl]-N-[(1R,2S)-1-{[(1-ethylcyclopropyl)sulfonyl]carbamoyl}-2-vinylcyclopropyl]-10,10-dimethyl-7-azadispiro[3.0.4.1]decane-8-carboxamide] | 1.8 |
| C=C[C@@H]1C[C@]1(NC(=O)[C@@H]1C[C@@]2(CN1C(=O)[C@@H](NC(=O)[C@@H](NC(=O)c1c(C)n[nH]c1C)C(C)(C)C)C(C)(C)C)C(C)(C)C21CCC1)C(=O)NS(=O)(=O)C1CC1 [Compound 136, (5R,8S)-N-{(1R,2S)-1-[(cyclopropylsulfonyl)carba-moyl]-2-vinylcyclopropyl}-7-[(2S)-2-{[(2S)-2-{[(3,5-dimethyl-1H-pyrazol-4-yl)carbonyl]amino}-3,3-dimethylbutanoyl]amino}-3,3-dimethylbutanoyl]-10,10-dimethyl-7-azadispiro[3.0.4.1]decane-8-carboxamide] | 20 |
| CC(C)(C)[C@H](NC(=O)[C@@H]1CCCCN1CCF)C(=O)N[C@H](C(=O)N1C[C@]2(C[C@H]1C(=O)NC1(C(=O)NS(=O)(=O)C3CC3)CC=CC1)C(C)(C)C21CCC1)C(C)(C)C [Compound 24, (5R,8S)-N-{1-[(cyclopropylsulfonyl)carba-moyl]cyclopent-3-en-1-yl}-7-[(2S)-2-{[(2S)-2-({[(2S)-1-(2-fluoroethyl)piperidin-2-yl]carbonyl}amino)-3,3-dimethylbutanoyl]amino}-3,3-dimethylbutanoyl]-10,10-dimethyl-7-azadispiro[3.0.4.1]decane-8-carboxamide] | 5250 |
| C=C[C@@H]1C[C@]1(NC(=O)[C@@H]1C[C@@]2(CN1C(=O)[C@@H](NC(=O)[C@@H](NC(=O)[C@H]1CCCN1C(C)C)C(C)(C)C)C(C)(C)C)C(C)(C)C21CCC1)C(=O)NS(=O)(=O)C1CC1 [Compound 140, (5R,8S)-N-{(1R,2S)-1-[(cyclopropylsulfonyl)carba-moyl]-2-vinylcyclopropyl}-7-[(2S)-2-{[(2S)-2-({[(2R)-1-isopropylpyrrolidin-2-yl]carbonyl}amino)-3,3-dimethylbutanoyl]amino}-3,3-dimethylbutanoyl]-10,10-dimethyl-7-azadispiro[3.0.4.1]decane-8-carboxamide] | 1.5 |
| C=C[C@@H]1C[C@]1(NC(=O)[C@@H]1C[C@@]2(CN1C(=O)[C@@H](NC(=O)[C@@H](NC(=O)[C@@H]1CCCCN1C(C)C)C(C)(C)C)C(C)(C)C)C(C)(C)C21CCC1)C(=O)NS(=O)(=O)c1ccccc1 [Compound 17, (5R,8S)-7-[(2S)-2-{[(2S)-2-({[(2S)-1-isopropylpiperidin-2-yl]carbonyl}amino)-3,3-dimethylbutanoyl]amino}-3,3-dimethylbutanoyl]-10,10-dimethyl-N-{(1R,2S)-1-[(phenylsulfonyl)carbamoyl]-2-vinylcyclopropyl}-7-azadispiro[3.0.4.1]decane-8-carboxamide] | 4.5 |
| C=C[C@@H]1C[C@]1(NC(=O)[C@@H]1C[C@@]2(CN1C(=O)[C@@H](NC(=O)[C@@H](NC(=O)c1cc(C(C)(C)C)n[nH]1)C(C)(C)C)C(C)(C)C)C(C)(C)C21CCC1)C(=O)NS(=O)(=O)C1CC1 [Compound 138, (5R,8S)-7-[(2S)-2-{[(2S)-2-{[(3-tert-butyl-1H-pyrazol-5-yl)carbonyl]amino}-3,3-dimethylbutanoyl]amino}-3,3-dimethylbutanoyl]-N-{(1R,2S)-1-[(cyclopropylsulfonyl)carba-moyl]-2-vinylcyclopropyl}-10,10-dimethyl-7-azadispiro[3.0.4.1]decane-8-carboxamide] | 5.5 |
| C=C[C@@H]1C[C@]1(NC(=O)[C@@H]1C[C@@]2(CN1C(=O)[C@@H](NC(=O)[C@@H](NC(=O)c1ccno1)C(C)(C)C)C(C)(C)C)C(C)(C)C21CCC1)C(=O)NS(=O)(=O)C1CC1 [Compound 121, (5R,8S)-N-{(1R,2S)-1-[(cyclopropylsulfonyl)carba-moyl]-2-vinylcyclopropyl}-7-[(2S)-2-({(2S)-2-[(isoxazol-5-ylcarbonyl)amino]-3,3-dimethylbutanoyl}amino)-3,3-dimethylbutanoyl]-10,10-dimethyl-7-azadispiro[3.0.4.1]decane-8-carboxamide] | 9 |

Same assay, conditions: read-out: Protease IC50

| Compound | IC50 [nM] |
| --- | --- |
| C=C[C@@H]1C[C@]1(NC(=O)[C@@H]1C[C@@]2(CN1C(=O)[C@@H](NC(=O)[C@@H](NS(=O)(=O)c1cn(C)cn1)C(C)(C)C)C(C)(C)C)C(C)(C)C21CCC1)C(=O)NS(=O)(=O)C1CC1 [Compound 52, (5R,8S)-N-{(1R,2S)-1-[(cyclopropylsulfonyl)carba-moyl]-2-vinylcyclopropyl}-7-[(2S)-2-{[(2S)-3,3-dimethyl-2-{[(1-methyl-1H-imidazol-4-yl)sulfonyl]amino}butanoyl]amino}-3,3-dimethylbutanoyl]-10,10-dimethyl-7-azadispiro[3.0.4.1]decane-8-carboxamide] | 200 |
| C=C[C@@H]1C[C@]1(NC(=O)[C@@H]1C[C@@]2(CN1C(=O)[C@@H](NC(=O)N[C@H](CN(C)S(=O)(=O)c1ccccn1)C(C)(C)C)C(C)(C)C)C(C)(C)C21CCC1)C(=O)NS(=O)(=O)C1CC1 [Compound 18, (5R,8S)-N-{(1R,2S)-1-[(cyclopropylsulfonyl)carba-moyl]-2-vinylcyclopropyl}-7-[(2S)-2-({[(1S)-2,2-dimethyl-1-{[methyl(pyridin-2-ylsulfonyl)amino]methyl}prop-yl]carbamoyl}amino)-3,3-dimethylbutanoyl]-10,10-dimethyl-7-azadispiro[3.0.4.1]decane-8-carboxamide] | 3 |
